This note sets out measurements from PubChem BioAssay (NCI).

Each structure is given as a SMILES string.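 These data come from cells grown in 96-well plates and exposed to compound for 48 hours at five concentrations. GI50: concentration for 50% inhibition of growth. The concentration for full growth arrest is given as TGI.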

Test systems include HCT-116 colon; MALME-3M melanoma; NCI-H23 lung; SF-268 CNS; SF-539 CNS; SK-MEL-5 melanoma; SK-OV-3 ovarian; TK-10 renal; HL-60(TB) leukemia; SR leukemia.
Experiment in all cases: NCI anticancer screen, dose series, 48 h

For `COC(=O)C(C)NC(=O)c1ccccc1I(OS(=O)(=O)C(F)(F)F)c1ccccc1` (stereo unspecified), the GI50 was 30 µM with HCT-116 colon; 14 µM in the experiment on MALME-3M melanoma; 18.5 µM with NCI-H23 lung; 17.6 µM with SF-268 CNS; 22.7 µM in the experiment on SF-539 CNS; 13.2 µM in the experiment on SK-MEL-5 melanoma. The GI50 in the experiment with SK-OV-3 ovarian is 23.6 µM; in the experiment on TK-10 renal, 21 µM. The TGI in the experiment on HCT-116 colon was more than 100 µM; in the experiment on MALME-3M melanoma it was 29.5 µM; with NCI-H23 lung, more than 53.3 µM; in the experiment with SF-268 CNS, 53.2 µM; in the experiment on SF-539 CNS, 45.6 µM; in the experiment on SK-MEL-5 melanoma, 26.5 µM. Besides, the TGI came to 56.5 µM in the experiment on SK-OV-3 ovarian and 57.6 µM in the experiment on TK-10 renal.

As to `CC(=O)[CH-]C(=O)c1ccccc1.CC(=O)[CH-]C(=O)c1ccccc1.CC[O-].O=C1c2ccccc2C(=O)c2c1ccc(O)c2[O-].[Ti+4]`, the TGI was more than 100 µM in the experiment on HCT-116 colon; 56.6 µM in the experiment on HL-60(TB) leukemia; 61 µM in the experiment with MALME-3M melanoma; more than 100 µM in the experiment with NCI-H23 lung; more than 100 µM with SF-268 CNS; more than 100 µM in the experiment on SF-539 CNS. Also, the TGI with SK-MEL-5 melanoma and with SK-OV-3 ovarian was more than 100 µM throughout. The GI50 in the experiment on HL-60(TB) leukemia is 19.6 µM; with MALME-3M melanoma, 25.6 µM; with SK-MEL-5 melanoma it was 30.4 µM; in the experiment on SK-OV-3 ovarian it was 52.5 µM.

Regarding `CC(=O)[CH-]C(C)=O.CC(=O)[CH-]C(C)=O.CC[O-].CC[O-].[Ti+4]`, the GI50 in the experiment with HL-60(TB) leukemia, in the experiment with MALME-3M melanoma, in the experiment on SF-268 CNS, in the experiment with SF-539 CNS, in the experiment with SK-MEL-5 melanoma and in the experiment with SK-OV-3 ovarian was more than 100 µM throughout. Also, the GI50 in the experiment with TK-10 renal was more than 100 µM. In addition, the TGI in the experiment on HL-60(TB) leukemia, in the experiment with MALME-3M melanoma, in the experiment with SF-268 CNS, in the experiment on SF-539 CNS, in the experiment on SK-MEL-5 melanoma and in the experiment with SK-OV-3 ovarian was more than 100 µM in each case. The molecule further yielded a TGI in the experiment on TK-10 renal of more than 100 µM.

As for `O=C1C(Cl)=C(Nc2cccc(O)c2)C(=O)N1Cc1ccc(Cl)cc1Cl`, the GI50 in the experiment with HCT-116 colon is 2.01 µM; with MALME-3M melanoma it was 1.18 µM; in the experiment with NCI-H23 lung it was 3.78 µM; with SF-268 CNS, 6.09 µM; with SF-539 CNS, 0.561 µM; in the experiment with SK-MEL-5 melanoma it was 0.84 µM. For the same molecule, the GI50 in the experiment on SK-OV-3 ovarian was 9.43 µM; with SR leukemia, 1.88 µM; in the experiment on TK-10 renal it was 13.6 µM. Besides, the TGI in the experiment with HCT-116 colon was 12.4 µM; with MALME-3M melanoma, 14.9 µM; with NCI-H23 lung, 17.8 µM; in the experiment with SF-268 CNS it was 21.9 µM; with SF-539 CNS, 13.8 µM; in the experiment on SK-MEL-5 melanoma it was 5.64 µM. The TGI in the experiment on SK-OV-3 ovarian was found to be 23.7 µM; in the experiment with SR leukemia, 11.9 µM; with TK-10 renal, 28.4 µM.

On to `CC(=O)N/C(=C\c1ccc(Cc2nc3c([nH]2)C(=O)c2ccccc2C3=O)cc1)c1nc2c([nH]1)C(=O)c1ccccc1C2=O`, for which the TGI in the experiment on HCT-116 colon, with HL-60(TB) leukemia, in the experiment on MALME-3M melanoma, with NCI-H23 lung, in the experiment with SF-268 CNS and in the experiment with SF-539 CNS was more than 100 µM in each case. Further, the TGI with SK-MEL-5 melanoma, in the experiment on SK-OV-3 ovarian and with TK-10 renal was more than 100 µM throughout.

In the case of `CC(C)=CC(=O)Cc1nc2ccc([N+](=O)[O-])cc2[nH]c1=O`, the TGI in the experiment on HCT-116 colon, in the experiment with HL-60(TB) leukemia, in the experiment with MALME-3M melanoma, in the experiment on NCI-H23 lung, with SF-268 CNS and in the experiment with SF-539 CNS was more than 100 µM each time. The TGI with SK-MEL-5 melanoma, in the experiment with SK-OV-3 ovarian and in the experiment on TK-10 renal was more than 100 µM in each case.

With `CCCCCn1c(C)cc(/C=C\c2ccc3cc(C)ccc3[n+]2C)c1C`, the GI50 is 0.0343 µM in the experiment with HCT-116 colon; 0.0296 µM with HL-60(TB) leukemia; 0.0414 µM in the experiment with NCI-H23 lung; 0.252 µM in the experiment on SF-268 CNS; 0.241 µM in the experiment on SF-539 CNS; 0.0801 µM in the experiment on SK-MEL-5 melanoma. Besides, the GI50 is 0.124 µM in the experiment with SK-OV-3 ovarian and 0.157 µM in the experiment with TK-10 renal. Further, the TGI amounted to 1.09 µM with HCT-116 colon; 0.128 µM in the experiment with HL-60(TB) leukemia; 1.1 µM in the experiment with NCI-H23 lung; 1.41 µM with SF-268 CNS; 1.06 µM with SF-539 CNS; 0.219 µM in the experiment with SK-MEL-5 melanoma. Moreover, the TGI with SK-OV-3 ovarian was 0.853 µM; in the experiment on TK-10 renal, 0.89 µM.

Take `N#CCC(=O)N1CCCCCCC1`: the TGI was more than 100 µM in the experiment with HCT-116 colon; 78 µM in the experiment on HL-60(TB) leukemia; more than 100 µM in the experiment on MALME-3M melanoma; more than 100 µM in the experiment with NCI-H23 lung; more than 100 µM in the experiment with SF-268 CNS; more than 100 µM with SF-539 CNS. Moreover, the TGI in the experiment with SK-MEL-5 melanoma, in the experiment on SK-OV-3 ovarian and with TK-10 renal was more than 100 µM throughout.

Turning to `C=CC1=C(C)C2=NC1=CC1=NC(=C(CC)/C1=C\O)C=C1N=C3C(=C1C)C(=O)[C@H](C(=O)OC)C3=C1NC(=C2)[C@@H](C)[C@@H]1CCC(=O)O`, the TGI in the experiment on HCT-116 colon was more than 100 µM; with HL-60(TB) leukemia, 92.3 µM; with MALME-3M melanoma it was more than 100 µM; in the experiment on NCI-H23 lung it was more than 100 µM; in the experiment on SF-268 CNS it was more than 100 µM; with SF-539 CNS it was more than 100 µM. Also, the TGI with SK-MEL-5 melanoma, in the experiment with SK-OV-3 ovarian and in the experiment on TK-10 renal was more than 100 µM each time.

In the case of `O=[N+]([O-])c1ccc(C=NC23CC4CC(CC(C4)C2)C3)cc1`, the TGI with HCT-116 colon, in the experiment on HL-60(TB) leukemia, in the experiment with MALME-3M melanoma, in the experiment with NCI-H23 lung, with SF-268 CNS and in the experiment on SF-539 CNS was more than 100 µM each time. Also, the TGI in the experiment with SK-OV-3 ovarian and in the experiment on TK-10 renal was more than 100 µM throughout.

`CN1C/C(=C\C=C\c2ccccc2)C(=O)/C(=C/C=C/c2ccccc2)C1`: the TGI in the experiment on HCT-116 colon, in the experiment on MALME-3M melanoma, with NCI-H23 lung, in the experiment on SF-268 CNS, with SF-539 CNS and in the experiment with SK-MEL-5 melanoma was more than 100 µM in each case. The TGI with SK-OV-3 ovarian and in the experiment with TK-10 renal was more than 100 µM in each case.

Turning to `CCN(CC)CCNC(=O)c1cccc2nc3ccccc3nc12`, the TGI with HCT-116 colon was 45.6 µM; in the experiment with MALME-3M melanoma it was 24.6 µM; in the experiment with NCI-H23 lung, 31.8 µM; in the experiment with SF-268 CNS, 36.9 µM; with SF-539 CNS it was 28.8 µM; in the experiment with SK-MEL-5 melanoma it was more than 100 µM. In addition, the TGI with SK-OV-3 ovarian and in the experiment on TK-10 renal was more than 100 µM in each case.
